This note sets out measurements from patent US7347970B2, “Biocides based on silanol terminated silanes and siloxanes” (University of Florida Research Foundation, Inc., priority 2004, dated 2008).

What all share (type): cell-based
The subject of assay [1] is E. coli. Put plainly: Antimicrobial (bioactivity) test, plate counts and dilution method, log reduction. Conditions: for bioactivity against E. coli: with cosolvent propylene glycol n-propyl ether, FIG. 6. The method, then:
Bioactivity (toxicity) tests were performed using silanols according to the invention along with some controls. E. coli was provided as the target microorganism. […] 20th ed. L. S. Clesceri, A. E. Greenberg, A. D. Eaton (eds.) Washington, D.C. was employed to measure the number of viable cells after the bioactivity tests. The collected sample underwent serial dilutions in which the original sample collected was diluted in a series of dilution tubes. Each succeeding dilution tube will have only one-tenth the number of microbial cells as the preceding tube. Then the samples of the dilution were used to inoculate Petri plates containing solid medium. The sample on the plates was plated evenly over the surface of the solid medium. Colonies grew only on surface of medium and could be counted. This count was used to estimate the number of viable bacterial in the original sample.
Log reduction represents the number of E. coli eliminated through the silanol or other chemical treatment. The experiments were operated for an hour with proper stirring in aqueous solution. […] Log reduction 8 represents the detection limit for the experiment performed, and thus represents complete removal.
(§1) Nine (9) ml of D.I. water was mixed with 1 ml of E. coli solution, and antimicrobial materials for 1 hr with magnetic stirring, then sampling was carried out. The plate counting method as described above was employed to measure the viability of the E. coli.

Assay [2] has as its system E. coli. Put plainly: Minimum lethal concentration (MLC) against E. coli. To be noted: for minimum lethal concentration compared with corresponding alcohol: E. coli, FIG. 10. On the procedure: The minimum lethal concentration against E. coli for each silanol is defined as the maximum dilution of the product that will kill a test organism. […] The antimicrobial effect increased with an increase in the number of the alkyl chain of the substituent R, in the order of methyl<ethyl<n-propyl<n-butyl as shown FIG. 5.
Antimicrobial test was carried out to compare the bioactivity of fragrance ingredient of alcohols and the corresponding silanols according to the invention against E. coli. Alcohols, 2-methyl-1-phenyl-2-propanol corresponding to benzyldimethylsilanol, 2-methyl-4-phenyl-2-butanol corresponding to phenethyldimethylsilanol, were obtained from Sigma-Aldrich, and the silanols were prepared by the hydrolysis of chlorosilane.
as §1

Assay [3] deals with E. coli. Put plainly: Antimicrobial (bioactivity) test, plate counts and dilution method, log reduction. Conditions: 0.2 (% g/g), 10 minute mixing, FIG. 3; below detection limit.
Where [4] appears, read: 2 (% g/g), FIG. 4, complete removal.
The mark [5] stands for this setting: 0.1% g/g with cosolvent propylene glycol n-propyl ether, FIG. 6/7.

As to `C[Si](C)(O)CCC(F)(F)F` [3,3,3-trifluoropropyldimethylsilanol], the “log reduction of E. coli” value in the assay with E. coli [1] (setting [4]) is given as “eight”. Regarding `C[Si](C)(O)Cc1ccccc1` [Benzyldimethylsilanol (UF), Benzyldimethylsilanol], the “minimum lethal concentration compared with corresponding alcohol” value in the assay on E. coli [2] is “lower than their corresponding alcohols”. As for `C[Si]1(C)O[Si](C)(C)O[Si](C)(C)O[Si](C)(C)O1` [D4, octamethylcyclotetrasiloxane, reference compound], the “bioactivity against E. coli” value in the assay with E. coli [1] is “did not provide significant bioactivity”. For the compound `C[Si](C)(O)CCc1ccccc1` [Phenethyldimethylsilanol (UF), Phenethyldimethylsilanol], the “minimum lethal concentration compared with corresponding alcohol” value with E. coli [2] is “lower than their corresponding alcohols”. With `C[Si](C)(O)c1ccccc1` [Phenyldimethylsilanol], the “log reduction of E. coli” value with E. coli [1] (setting [4]) was “eight”. As for `CC(C)(C)O` [t-butanol, reference compound], in the assay on E. coli [1], the “bioactivity against E. coli” value is “did not provide significant bioactivity”. `CC(C)(C)[Si](C)(C)O` [t-butyldimethylsilanol]: the “log reduction of E. coli” value in the assay on E. coli [1] (setting [5]) amounted to 8 log. With `CC[Si](O)(CC)CC` [triethylsilanol], the “log reduction of E. coli” value with E. coli [1] (setting [5]) was 8 log; in the assay with E. coli [1] (setting [4]) it was “eight”; in the assay with E. coli [1] (2.5 (% g/g), FIG. 2, 8 = detection limit), 8 log. Besides, the “antimicrobial effect (log reduction of E. coli)” value with E. coli [1] (10 (% g/g), one hour stirring in aqueous solution, FIG. 1) was “high antimicrobial effect”. For the same compound, the “reduction of E. coli” value in the assay on E. coli [3] is “more than eight”. In addition, the “antimicrobial effect by minimum lethal concentration” value in the assay with E. coli [2] (FIG. 5) is “strong antimicrobial effect”. For `C[Si](C)(C)O` [trimethyisilanol], the “log reduction of E. coli” value in the assay with E. coli [1] (setting [5]) came to 8 log. On to `C=C[Si](C)(C)O` [vinyldimethylsilanol], for which the “log reduction of E. coli” value in the assay with E. coli [1] (setting [4]) is listed as “eight”. In the case of diphenylmethylsilanol, the “log reduction of E. coli” value with E. coli [1] (setting [5]) is given as 8 log. As to vinylphenylmethylsilanol, in the assay with E. coli [1] (setting [4]), the “log reduction of E. coli” value was “eight”.
